For one test, the target named is T1, HDAC7 (Homo sapiens, UniProt Q8WUI4).
T1 sequence (Q8WUI4 1-952): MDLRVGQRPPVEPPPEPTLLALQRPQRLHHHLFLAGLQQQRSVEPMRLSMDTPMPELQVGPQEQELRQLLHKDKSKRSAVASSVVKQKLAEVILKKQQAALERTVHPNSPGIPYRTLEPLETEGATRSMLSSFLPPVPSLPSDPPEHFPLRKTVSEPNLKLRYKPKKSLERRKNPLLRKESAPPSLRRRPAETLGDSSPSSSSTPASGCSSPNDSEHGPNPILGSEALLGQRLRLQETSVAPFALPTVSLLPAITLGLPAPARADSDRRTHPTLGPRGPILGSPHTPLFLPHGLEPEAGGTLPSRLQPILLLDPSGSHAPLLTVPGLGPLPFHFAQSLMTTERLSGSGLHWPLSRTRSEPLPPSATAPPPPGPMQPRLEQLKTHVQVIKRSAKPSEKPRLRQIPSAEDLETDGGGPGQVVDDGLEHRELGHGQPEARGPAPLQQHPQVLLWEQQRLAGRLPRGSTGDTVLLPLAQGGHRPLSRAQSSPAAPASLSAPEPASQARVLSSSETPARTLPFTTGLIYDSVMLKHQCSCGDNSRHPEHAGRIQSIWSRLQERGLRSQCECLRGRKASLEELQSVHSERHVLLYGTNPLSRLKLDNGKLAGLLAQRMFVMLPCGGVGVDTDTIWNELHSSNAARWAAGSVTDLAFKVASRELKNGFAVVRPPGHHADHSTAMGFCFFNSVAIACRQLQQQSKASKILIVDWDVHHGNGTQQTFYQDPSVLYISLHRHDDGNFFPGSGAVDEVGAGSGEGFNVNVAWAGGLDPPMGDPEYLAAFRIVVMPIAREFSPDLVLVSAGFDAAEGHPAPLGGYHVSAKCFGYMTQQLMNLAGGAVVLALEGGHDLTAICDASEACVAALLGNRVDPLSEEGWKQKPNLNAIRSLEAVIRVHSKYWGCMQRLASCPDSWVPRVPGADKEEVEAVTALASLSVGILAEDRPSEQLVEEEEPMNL
Description: HDAC biochemical activity measurement (fluorescent substrate deacetylation).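 Note: fluorogenic deacetylation assay using acetyl-lysine substrate at 20 µM, enzyme and compound incubated 30 min at 37 °C, then developer added, fluorescence read at 360/460 nm.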 Particulars: HDAC7; 37° C. 30 minutes.

In test [1] the test system is MCF-7 (human breast cancer cells). Description: MTT cancer cell growth inhibition. The test is classed as cell-based. Particulars: Homo sapiens, MCF7, 72 h, 72 hours incubation, read-out: GI50 MCF. The essentials: (§1)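 Read-out was formazan absorbance at 570 nm after a 4 h MTT step and DMSO solubilisation, converted to cell viability and fitted for GI50. Beforehand, cells (1500/well, overnight attachment) were treated with compound at 10^−5 to 10^−10 M for 72 h at 37° C.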

The test system of test [2] is H1975 (non-small cell lung adenocarcinoma). Briefly: MTT cancer cell growth inhibition. It is filed as cell-based. Particulars: Homo sapiens, NCI-H1975, 72 h, MTT, 72 hours incubation, H1975 cells; read-out: GI50 H1975. The essentials: as §1
The test system of test [3] is MOLT-4 (human acute lymphoblastic leukemia cells). Briefly: MTT cancer cell growth inhibition. It is filed as cell-based. Particulars: Homo sapiens, MOLT-4, 72 h, MTT, 72 hours incubation, read-out: GI50 Mol. The essentials:
as §1

The subject of test [4] is DU145 (human prostate cancer cells). Description: MTT cancer cell growth inhibition. The test is classed as cell-based. Particulars: Homo sapiens, DU-145, 72 h, MTT, 72 hours incubation, read-out: GI50 Du1. The essentials: as §1
Test [5] relates to MDA-MB-231 (breast cancer cells). Briefly: MTT cancer cell growth inhibition. The test is classed as cell-based. Particulars: Homo sapiens, MDA-MB-231, 72 h, read-out: GI50 MDA-MB-231, MTT, 72 hours incubation, MDA-MB-231 cells. The essentials: as §1
In test [6] the test system is A549 (human lung cancer cells). Description: MTT cancer cell growth inhibition. It is filed as cell-based. To be noted: Homo sapiens, A549, 72 h, MTT, 72 hours incubation, read-out: GI50 A54. The procedure, abridged: as §1
Test [7] deals with KBM-5 (human chronic myelogenous leukemia). Description: MTT cancer cell growth inhibition. It is filed as cell-based. Particulars: Homo sapiens, KBM5, 72 h, MTT, 72 hours incubation, KBM-5 cells; read-out: GI50 KBM-5. The procedure, abridged:
as §1

Test [8] concerns K562 (human leukemia cells). Briefly: MTT cancer cell growth inhibition. The test is classed as cell-based. Particulars: Homo sapiens, K562, 72 h, MTT, 72 hours incubation, K562 cells; read-out: GI50 K562. The procedure, abridged:
as §1

The test system of test [9] is HCC827 (human non-small cell lung cancer cells). Briefly: MTT cancer cell growth inhibition. The test is classed as cell-based. To be noted: Homo sapiens, HCC827, 72 h, MTT, 72 hours incubation, HCC827 cells; read-out: GI50 HCC827. The procedure, abridged:
as §1

The subject of test [10] is PANC-1 (Pac-1, human pancreatic cancer cells). Description: MTT cancer cell growth inhibition. It is filed as cell-based. To be noted: Homo sapiens, PANC-1, 72 h, MTT, 72 hours incubation, read-out: GI50 PAN. The essentials: as §1
The test system of test [11] is N-87 (human gastric cancer cells). Description: MTT cancer cell growth inhibition. Particulars: Homo sapiens, 72 h, MTT, 72 hours incubation, N-87 cells; read-out: GI50 N-87. It is filed as cell-based. The procedure, abridged: as §1
Test [12] concerns SGC-7901 (human gastric cancer cells). Description: MTT cancer cell growth inhibition. It is filed as cell-based. Particulars: Homo sapiens, SGC-7901, 72 h, MTT, 72 hours incubation, SGC-7901 cells; read-out: GI50 SGC-7901. The procedure, abridged: as §1
Test [13] relates to BGC-823 (human gastric cancer cells). Briefly: MTT cancer cell growth inhibition. It is filed as cell-based. To be noted: Homo sapiens, BGC-823, 72 h, MTT, 72 hours incubation, read-out: GI50 BG. The procedure, abridged: as §1
Test [14] concerns Bel-7402 (human hepatoma cells). Description: MTT cancer cell growth inhibition. The test is classed as cell-based. Particulars: Homo sapiens, Bel-7402, 72 h, MTT, 72 hours incubation, Bel-7402 cells; read-out: GI50 Bel-7402. The essentials:
as §1

Test [15] concerns Hela (human cervical cancer cells). Briefly: MTT cancer cell growth inhibition. The test is classed as cell-based. To be noted: Homo sapiens, HeLa, 72 h, MTT, 72 hours incubation, read-out: GI50 Hela. The essentials: as §1
The test system of test [16] is U937 (human leukemia cells). Description: MTT cancer cell growth inhibition. It is filed as cell-based. To be noted: Homo sapiens, U-937, 72 h, MTT, 72 hours incubation, read-out: GI50 U93. The essentials: as §1
For test [17], the system named is lncap (prostate cancer cells). Description: MTT cancer cell growth inhibition. The test is classed as cell-based. To be noted: Homo sapiens, LNCaP, 72 h, MTT, 72 hours incubation, read-out: GI50 lnca. The procedure, abridged: as §1
Test [18] deals with HT1080 (human fibrosarcoma cells). Description: MTT cancer cell growth inhibition. To be noted: Homo sapiens, HT-1080, 72 h, MTT, 72 hours incubation, read-out: GI50 HT1. It is filed as cell-based. The essentials:
as §1

Test [19] has as its system KBM5-T315I (human chronic myelogenous leukemia). Briefly: MTT cancer cell growth inhibition. The test is classed as cell-based. Particulars: Homo sapiens, 72 h, MTT, 72 hours incubation, KBM5-T315I cells; read-out: GI50 KBM5-T315I. The essentials:
as §1

The subject of test [20] is Huh-7 (human hepatoma cells). Briefly: MTT cancer cell growth inhibition. It is filed as cell-based. Particulars: Homo sapiens, Huh-7, 72 h, MTT, 72 hours incubation, Huh-7 cells; read-out: GI50 Huh-7. The essentials:
as §1

Read-outs that look alike come from different tables or passages of the source.

The GI50 is the concentration giving 50% growth inhibition. On to `C/C=C1\NC(=O)c2ccc(SC)c(n2)CNC(=O)C[C@@H](/C=C/CCSC(C)=O)OC(=O)[C@H](CCCCNC(=O)OCC2c3ccccc3-c3ccccc32)NC1=O` [Compound 197], for which the “IC50 HDAC7” value at HDAC7 is “no activity”. In addition, the concentration for 50% growth inhibition (GI50) was found to be 50 nM in test [1] (MCF-7 cells); 45 nM in test [2]; 40 nM in test [3] (MOLT-4 cells); 50 nM in test [4] (DU145 cells); 16 nM in test [5]; 60 nM in test [6] (A549 cells). For the same compound, the GI50 in test [7] is 86 nM; in test [8], 49 nM; in test [9] it was 71 nM; in [10] (PANC-1 cells), 40 nM; in [11], 28 nM; in test [12] it was 43 nM. Further, the GI50 in [13] (BGC-823 cells) was determined as 40 nM; in test [14], 52 nM; in [15] (Hela cells), 70 nM; in [16] (U937 cells), 80 nM; in test [17] (lncap cells), 30 nM; in test [18] (HT1080 cells), 50 nM. Also, the 50% growth inhibitory concentration (GI50) in test [19] turned out to be 21 nM; in [20], 76 nM.

As to `C/C=C1\NC(=O)c2cc(SC)cc(n2)CNC(=O)C[C@@H](/C=C/CCSC(=O)CCCCCCC)OC(=O)[C@H](C(C)C)NC1=O` [Compound 148], the “IC50 HDAC7” value against HDAC7 is on record as “no activity”. For the same compound, the 50% growth inhibitory concentration (GI50) amounted to 50 nM in [1] (MCF-7 cells); 39 nM in test [2]; 80 nM in [3] (MOLT-4 cells); 50 nM in test [4] (DU145 cells); 51 nM in [5]; 20 nM in test [6] (A549 cells). The GI50 in test [7] was found to be 35 nM; in test [8], 62 nM; in [9], 16 nM; in test [10] (PANC-1 cells), 40 nM; in test [11], 47 nM; in test [12], 51 nM. For the same compound, the GI50 in test [13] (BGC-823 cells) worked out at 40 nM; in test [14], 53 nM; in test [15] (Hela cells) it was 40 nM; in test [16] (U937 cells) it was 20 nM; in test [17] (lncap cells), 40 nM; in test [18] (HT1080 cells) it was 80 nM. Moreover, the GI50 in test [19] was 53 nM; in test [20], 64 nM.

With `C=C1NC(=O)c2cc(F)cc(n2)CNC(=O)C[C@@H](/C=C/CCSC(C)=O)OC(=O)[C@H](C)NC1=O` [Compound 91], the “IC50 HDAC7” value against HDAC7 is reported as “no activity”. Besides, the GI50 in test [1] is 30 nM; in [2] it was 38 nM; in test [3], 40 nM; in [4], 20 nM; in test [5], 46 nM; in test [6], 40 nM. Also, the GI50 in [7] amounted to 91 nM; in test [8], 26 nM; in test [9] it was 51 nM; in test [10], 50 nM; in [11], 62 nM; in [12] it was 48 nM. Moreover, the concentration for 50% growth inhibition (GI50) was 60 nM in test [13]; 51 nM in test [14]; 90 nM in [15]; 30 nM in [16]; 40 nM in test [17]; 50 nM in test [18]. For the same compound, the GI50 in test [19] stood at 31 nM; in test [20] it was 46 nM.

Consider `C/C=C1\NC(=O)c2cc(F)cc(n2)CNC(=O)C[C@@H](/C=C/CCSC(=O)CCCCCC)OC(=O)[C@H](C(C)C)NC1=O` [Example 34], for which the “IC50 HDAC7” value against HDAC7 is “no activity”. Moreover, the GI50 worked out at 50 nM in test [1]; 34 nM in test [2]; 40 nM in test [3]; 50 nM in test [4]; 49 nM in [5]; 40 nM in test [6]. Further, the GI50 was 74 nM in test [7]; 53 nM in test [8]; 94 nM in test [9]; 90 nM in [10]; 67 nM in test [11]; 49 nM in test [12]. Also, the GI50 in test [13] turned out to be 60 nM; in [14], 94 nM; in test [15], 70 nM; in test [16] it was 30 nM; in [17], 40 nM; in test [18] it was 90 nM. The concentration for 50% growth inhibition (GI50) amounted to 53 nM in test [19] and 49 nM in [20].

For the origin of these results see patent US10065990B2, “Cyclic peptide compound, and preparation method, pharmaceutical composition and use thereof” (HANGZHOU GUANYU BIO-MEDICAL CO., LTD, priority 2013, dated 2018).
